Data: BindingDB's records for patent US10800778 (Entasis Therapeutics Limited, 2020)

How the values were obtained:
[1] = biological target: Beta-lactamase (Klebsiella pneumoniae, UniProt Q6XEC0); assay: Inhibition of Beta-Lactamase Enzymes
Protocol: (§1) A buffer consisting of 0.1 M sodium phosphate (pH 7.0), 10 mM NaHCO3, and 0.005% Triton X-100 was used for all enzymes. The chromogenic substrate nitrocefin (SynGene, Bangalore, India) was used at 100 μM. Enzyme activity was monitored by the 490 nm absorbance increase upon nitrocefin hydrolysis. Assays were performed in clear polystyrene 384-well plates (Greiner Bio-One, Monroe, N.C.). Absorbance was measured for 1 hour at 30-s intervals using a Spectramax absorbance plate reader (Molecular Devices, Sunnyvale, Calif.). Measurement of beta-lactamase inhibition by INHIBITOR employed serial 3-fold dilutions of the inhibitor in assay buffer, ranging from 100 μM to 62.7 pM. A background absorbance progress curve for a control lacking enzyme and inhibitor was subtracted from each progress curve.

[2] = biological target: Beta-lactamase TEM (Escherichia coli, UniProt P62593); assay: Inhibition of Beta-Lactamase Enzymes
Sequence of Beta-lactamase TEM (P62593 whole entry): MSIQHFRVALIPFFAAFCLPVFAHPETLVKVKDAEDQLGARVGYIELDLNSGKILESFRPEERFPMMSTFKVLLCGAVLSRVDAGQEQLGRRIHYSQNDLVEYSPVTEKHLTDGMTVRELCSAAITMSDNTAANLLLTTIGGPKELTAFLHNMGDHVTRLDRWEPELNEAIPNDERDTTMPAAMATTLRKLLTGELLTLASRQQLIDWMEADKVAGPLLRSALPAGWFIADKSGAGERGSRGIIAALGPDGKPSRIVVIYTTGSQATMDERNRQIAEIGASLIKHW
Protocol: as §1

Sequence of Beta-lactamase (Q6XEC0 whole entry): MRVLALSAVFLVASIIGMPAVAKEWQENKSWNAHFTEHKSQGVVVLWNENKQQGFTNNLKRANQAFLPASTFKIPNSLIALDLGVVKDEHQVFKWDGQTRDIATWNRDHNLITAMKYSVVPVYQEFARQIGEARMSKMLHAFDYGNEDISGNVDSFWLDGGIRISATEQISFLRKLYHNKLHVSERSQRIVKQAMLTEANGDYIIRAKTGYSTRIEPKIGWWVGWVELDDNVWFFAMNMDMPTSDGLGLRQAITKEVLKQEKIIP

CC1=C[C@@H]2CN(C(=O)N2O[C@@H](F)C(=O)O)[C@@H]1C(=O)NOC[C@@H]1CCCN1 [US10800778, Example 62]
IC50 [1]: 870 nM | IC50 [2]: 210 nM
